{"source": "paper PMC3821043", "about": "(Biochemical pharmacology, 2012)", "target": "T1, ABCG2 (breast cancer resistance protein) (Homo sapiens, UniProt Q9UNQ0)", "T1 sequence (Q9UNQ0 1-655)": "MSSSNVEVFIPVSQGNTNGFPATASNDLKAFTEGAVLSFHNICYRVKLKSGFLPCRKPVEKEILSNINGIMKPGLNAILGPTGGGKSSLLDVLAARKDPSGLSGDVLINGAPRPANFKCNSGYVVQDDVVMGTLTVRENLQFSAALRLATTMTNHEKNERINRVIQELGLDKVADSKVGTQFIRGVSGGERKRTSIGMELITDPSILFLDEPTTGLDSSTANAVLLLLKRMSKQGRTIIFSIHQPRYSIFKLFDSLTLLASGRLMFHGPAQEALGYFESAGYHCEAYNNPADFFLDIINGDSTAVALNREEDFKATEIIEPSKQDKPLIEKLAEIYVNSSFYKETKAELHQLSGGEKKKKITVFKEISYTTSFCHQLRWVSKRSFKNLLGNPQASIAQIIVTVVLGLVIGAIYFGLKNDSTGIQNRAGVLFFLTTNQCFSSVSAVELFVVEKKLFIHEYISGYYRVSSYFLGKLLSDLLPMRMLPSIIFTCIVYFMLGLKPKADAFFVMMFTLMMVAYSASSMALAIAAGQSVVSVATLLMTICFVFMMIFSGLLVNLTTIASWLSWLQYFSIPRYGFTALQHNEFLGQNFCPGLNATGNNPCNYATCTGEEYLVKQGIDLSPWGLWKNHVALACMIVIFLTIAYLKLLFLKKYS", "assay": "competition of […]IAAP photoaffinity labeling", "assay_type": "binding"}
{"smiles": "CN1CCC(CNc2ccc3ncc(-c4cccc(OC(F)(F)F)c4)n3n2)CC1", "note": "[SGI-1776]", "values": [{"measurement": "IC50", "value": 0.09, "unit": "µM"}]}
